Reference: US20240368084A1, “STING MODULATORS, COMPOSITIONS, AND METHODS OF USE” (University of South Florida, priority 2021, published 2024)

Target: His-labeled STING (Homo sapiens, UniProt Q86WV6)
Test: Microscale thermophoresis (MST) binding assay
Conditions: for Confidence: confidence class by MST shift units; for Dissociation Constant: MST, incubating with 50 nM 2,3-cGAMP
Description: Nanotemper Monolith NT.115 labeled thermophoresis machine was used with standard treated capillary tubes using samples comprised of labeled protein and titrations of small molecule in 1×PBS. […] Detection of the protein was performed using the blue detection channel with LED excitation power set to 90% and MST set to high allowing 3 s prior to MST on to check for initial fluorescence differences, 25 s for thermophoresis, and 3 s for regeneration after MST off.
Detection of the protein was performed using the blue detection channel with LED excitation power set to 90% and MST set to high allowing 3 s prior to MST on to check for initial fluorescence differences, 25 s for thermophoresis, and 3 s for regeneration after MST off. Analysis was performed using M.O. Affinity Analysis Software with difference between initial fluorescence measured in the first 5 s as compared with thermophoresis at 15 s at 15 different analyte concentrations ranging from 100 zM to 100 μM and exported into Graphpad Prism v.8 using a Log inhibitor v. response 4 parameter fit.
Confidence is categorized as follows: 1=low confidence (<2 MST shift unit−non-statistical); 2=mid confidence (2-3 MST shift units−intermediate); 3=high confidence ([…]−statistical). Dissociation constants are categorized as follows: A<1 μM; 1 μM≤B<100 μM; […]; 10 μM≤D<100 μM.
Reference compounds were assayed using the same protocol.

Chain of His-labeled STING (Q86WV6 whole entry H232R): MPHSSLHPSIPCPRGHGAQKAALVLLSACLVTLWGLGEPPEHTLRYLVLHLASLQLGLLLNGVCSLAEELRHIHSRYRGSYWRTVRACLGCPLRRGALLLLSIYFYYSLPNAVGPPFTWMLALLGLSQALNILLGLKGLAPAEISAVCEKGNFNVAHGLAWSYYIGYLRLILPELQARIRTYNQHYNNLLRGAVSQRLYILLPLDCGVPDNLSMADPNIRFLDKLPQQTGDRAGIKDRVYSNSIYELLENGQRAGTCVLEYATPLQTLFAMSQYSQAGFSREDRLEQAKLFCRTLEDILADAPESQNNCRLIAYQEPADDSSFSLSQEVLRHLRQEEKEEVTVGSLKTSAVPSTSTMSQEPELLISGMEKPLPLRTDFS

Structure (SMILES) | Confidence | Dissociation Constant
COC(=O)c1cccnc1Nc1cccc(Br)c1C [Compound 24] | 1 (1=low confidence (<2 MST shift unit−non-statistical)) | –
NC(=O)NC1NC(=O)NC1=O (stereo not drawn) [Compound 52] | 3 (3=high confidence (>2 MST shift units−statistical)) | –
Cc1c(Cl)cccc1Nc1ncccc1C(=O)OCC(O)CO (stereo not drawn) [Compound 19] | 1 (1=low confidence (<2 MST shift unit−non-statistical)) | –
Cc1c(Cl)cccc1Nc1ncccc1CO [Compound 4] | 2 (2=mid confidence (2-3 MST shift units−intermediate)) | –
Cc1cccc(Nc2ncccc2C(=O)OCC(O)CO)c1C (stereo not drawn) [Compound 48] | 1 (1=low confidence (<2 MST shift unit−non-statistical)) | No Binding
Cc1cccc(Nc2ncccc2C(=O)O)c1C [Compound 47] | 1 (1=low confidence (<2 MST shift unit−non-statistical)) | No Binding
Cc1c(Br)cccc1Nc1ncccc1C(=O)O [Compound 23] | 3 (3=high confidence (>2 MST shift units−statistical)) | –
CCCCC(=O)c1cccnc1Nc1cccc(Cl)c1C [Compound 21] | 2 (2=mid confidence (2-3 MST shift units−intermediate)) | –
Cc1c(Cl)cccc1Nc1ccccc1C(=O)O [Compound 36, Tolfenamic acid, reference compound] | 1 (1=low confidence (<2 MST shift unit−non-statistical)) | No Binding
Cc1c(Cl)cccc1Nc1ncccc1C(=O)OCCCOC(=O)c1cccnc1Nc1cccc(Cl)c1C [Compound 41] | 1 (1=low confidence (<2 MST shift unit−non-statistical)) | –
CCCOC(=O)c1cccnc1Nc1cccc(Cl)c1C [Compound 11] | 1 (1=low confidence (<2 MST shift unit−non-statistical)) | –
CNC(=O)c1cccnc1Nc1cccc(Cl)c1C [Compound 14] | 2 (2=mid confidence (2-3 MST shift units−intermediate)) | –
Cc1cccc(Nc2ccccc2C(=O)O)c1C [Compound 45] | 1 (1=low confidence (<2 MST shift unit−non-statistical)) | No Binding
Cc1c(F)cccc1Nc1ncccc1C(=O)OCC(O)CO (stereo not drawn) [Compound 43] | 1 (1=low confidence (<2 MST shift unit−non-statistical)) | –
Cc1c(Nc2ncccc2C(=O)O)cccc1C(F)(F)F [Compound 27] | 3 (3=high confidence (>2 MST shift units−statistical)) | –
COC(=O)c1cccnc1Nc1cccc(Cl)c1C [Compound 9] | 3 (3=high confidence (>2 MST shift units−statistical)) | –
COC(=O)c1cccnc1Nc1cccc(F)c1C [Compound 44] | 1 (1=low confidence (<2 MST shift unit−non-statistical)) | –
Cc1cccc(Nc2ccccc2C(=O)OCC(O)CO)c1C (stereo not drawn) [Compound 46] | 1 (1=low confidence (<2 MST shift unit−non-statistical)) | No Binding
Cc1c(Cl)cccc1Nc1ncccc1C(=O)OCCCCOC(=O)c1cccnc1Nc1cccc(Cl)c1C [Compound 49] | 1 (1=low confidence (<2 MST shift unit−non-statistical)) | –
CCCNC(=O)c1cccnc1Nc1cccc(Cl)c1C [Compound 16] | 2 (2=mid confidence (2-3 MST shift units−intermediate)) | –
Cc1c(Cl)cccc1Nc1ncccc1COCC(O)CO (stereo not drawn) [Compound 1] | 1 (1=low confidence (<2 MST shift unit−non-statistical)) | –
CCNC(=O)c1cccnc1Nc1cccc(Cl)c1C [Compound 15] | 1 (1=low confidence (<2 MST shift unit−non-statistical)) | –
C#CCOC(=O)c1cccnc1Nc1cccc(Cl)c1C [Compound 13] | 2 (2=mid confidence (2-3 MST shift units−intermediate)) | –
Cc1c(Cl)cccc1Nc1ncccc1C(=O)OCCCCCOC(=O)c1cccnc1Nc1cccc(Cl)c1C [Compound 50] | 3 (3=high confidence (>2 MST shift units−statistical)) | –
CCOC(=O)c1cccnc1Nc1cccc(Cl)c1C [Compound 10] | 1 (1=low confidence (<2 MST shift unit−non-statistical)) | Low R^2
C=CCNC(=O)c1cccnc1Nc1cccc(Cl)c1C [Compound 17] | 1 (1=low confidence (<2 MST shift unit−non-statistical)) | –
Cc1c(Br)cccc1Nc1ncccc1C(=O)OCC(O)CO (stereo not drawn) [Compound 42] | 2 (2=mid confidence (2-3 MST shift units−intermediate)) | –
